Results as given in patent US20180369268A1, “METHODS FOR IDENTIFYING INHIBITORS OF "STIMULATOR OF INTERFERON GENE"- DEPENDENT INTERFERON PRODUCTION” (ADURO BIOTECH, INC., priority 2015, published 2018).
Where two headings read alike, the source gives them in different places.

Target: T1, STING in THP1 cells (HAQ allele) (Homo sapiens, UniProt Q86WV6, G230A/H232R/R293Q/R71H)
T1 construct: host or cells: THP-1 dual reporter cells
Experiment: THP-1 competition assay with STING agonist 2′3′-RR-(A)(A) (IRF-3 luciferase reporter)
Type: cell-based
Protocol: The scaffold molecules and STING inhibitory compounds as described herein are assayed for their ability to inhibit the induction of STING dependent IFN-β production by an agonist compound in a competition assay. Relative induction of IRF-3 signaling in THP-1 cells (HAQ allele) was measured after stimulating the cells with a mix of a scaffold molecule (or any putative STING antagonist) titrated against a constant concentration of the STING agonist 2′3′-RR-(A)(A) in PB buffer (50 mM HEPES pH 7.5, 100 mM KCl, 3 mM MgCl2, 0.1 mM DTT, 85 mM sucrose, 0.2% BSA, 1 mM ATP, 0.1 mM GTP).
One day prior to performing the assay, THP-1 dual (Invivogen) reporter cells were plated at 500,000 cells/mL in 200 μL per well in a 96-well plate and differentiated overnight with 3 μg/mL phorbal myristate acetate in RPMI medium 1640 (4.5 g/L D-glucose, 2.383 g/L HEPES, 300 mg/L L-glutamine, 1.5 g/L sodium bicarbonate, 110 mg/L sodium pyruvate, 10% heat-inactivated fetal bovine serum, 1× penicillin/streptomycin, 0.1 mg/mL normocin).
On the day of the assay, the media was removed from the wells and replaced with 150 μL of fresh media. The titrations against 2′ 3′-RR-(A)(A) in a final volume of 100 μL were made as follows: two-fold dilutions (2,000 μM-3.9 μM) of the scaffold molecule into PB buffer containing 100 μM 2′3′-RR-(A)(A) for a final concentration of 50 μM 2′3′-RR-(A)(A). Compounds were tested in biological triplicate.
The cells were then stimulated with 25 μL of each titration for 30 minutes at 37° C. in a CO2 incubator. After stimulating, the cells were washed twice, first with 100 μL and then 150 μL of fresh media. After washing, 150 μL of media was added to each well and the cells were incubated for 17 hours overnight at 37° C. in a CO2 incubator.
To detect IRF-3 signaling, 50 μL of luciferase substrate (Invivogen QUANTI-Luc coelenterazine-based luminescence reagent reconstituted in 25 mL water) was added to 10 μL of supernatant from each well in a 96-well white opaque plate. Luminescence was measured using a SpectraMax M3 plate reader (Molecular Devices) and relative fold-induction was calculated as the values obtained from wells containing both the scaffold molecule and 2′3′-RR-(A)(A) divided by the values obtained from wells containing 2′3′-RR-(A)(A) alone. The average of the relative fold-induction was plotted against the log concentration of the antagonist. Agonist compounds 2′3′-RR-(G)(A) and RR-(A)(A) were run as controls in this assay (see FIGS. 2A and 2B).
The results are provided for control compounds in FIGS. 2A and 2B and scaffold molecules in FIGS. […]: 2′3′-SR-(3′OTBS-A)(2′F-A) (FIG. 3A, Comp. 6a), SR-(2′F-A)(2′OTBS-A) (FIG. 3B, Comp. 18a), RR-(2,6-DAP)(2,6-DAP) (FIG. 3C, Comp. 23), RS-(2,6-DAP)(2,6-DAP) (FIG. 3D, Comp. 23a), (6-O-propargyl-G)(G) (FIG. 3E, Comp. 25), RR-(2′F-ibG)(2′F-ibG) (FIG. 3F, Comp. 32), RR-(2′F-C)(2′F-A) (FIG. 3G, Comp. 37), RS-(2′F-C)(2′F-A) (FIG. 3H, Comp. 37a), 3′2′-RR-(ibG)(BzA) (FIG. 3I, Comp. 42), 3′2′-SS-(G)(A) (FIG. 3J, Comp. 43), dithio-3′2′-(2′OTBS-G)(3′OTBS-A) isomer 1 (FIG. 3K, Comp. 49, isomer 1), dithio-3′2′-(2′OTBS-G)(3′OTBS-A) isomer 2 (FIG. 3L, Comp. 49, isomer 2), Beta-L-SS-(A)(A) (FIG. 3M, Comp. 48), Beta-L-RS-(A)(A) (FIG. 3N, Comp. 48a), and Beta-L-RR-(A)(A) (FIG. 3O, Comp. 48b). Isomer 1 and 2 of Compound 49 are different isomers, and are each one of compound 49a, 49b, 49c or 49d.

[1] = 50 μM 2′3′-RR-(A)(A), scaffold 2,000 μM-3.9 μM, without digitonin, IRF-3 reporter, read-out: IC50 inhibition of 2′3′-RR-(A)(A) agonist activity without digitonin in THP1 cells (HAQ allele)

T1 sequence (Q86WV6 whole entry R71H/G230A/H232R/R293Q): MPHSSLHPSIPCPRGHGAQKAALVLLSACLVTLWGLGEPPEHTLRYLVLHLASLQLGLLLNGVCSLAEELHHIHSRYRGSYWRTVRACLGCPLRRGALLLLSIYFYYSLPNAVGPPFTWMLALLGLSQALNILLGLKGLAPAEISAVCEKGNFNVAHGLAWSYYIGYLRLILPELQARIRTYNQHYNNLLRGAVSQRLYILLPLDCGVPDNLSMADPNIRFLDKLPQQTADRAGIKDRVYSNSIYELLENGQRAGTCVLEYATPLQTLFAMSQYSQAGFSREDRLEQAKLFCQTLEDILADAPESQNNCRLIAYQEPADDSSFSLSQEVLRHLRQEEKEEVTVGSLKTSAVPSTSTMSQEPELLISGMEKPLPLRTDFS

Structure (SMILES) | IC50 [1] [µM] | IC50 [µM]
CC(C)(C)[Si](C)(C)O[C@H]1[C@H]2O[P@@](=O)(S)OC[C@H]3O[C@@H](n4cnc5c(N)ncnc54)[C@H](F)[C@@H]3O[P@](=O)(S)OC[C@H]1O[C@H]2n1cnc2c(N)ncnc21 [Compound 6a, dithio-[SP, RP]-cyclic-[3′OTBS-A(2′,5′)p-2′F-A(3′,5′)p]] | – | 2170
Nc1nc(N)c2ncn([C@@H]3O[C@@H]4CO[P@@](=O)(S)O[C@H]5[C@@H](O)[C@H](n6cnc7c(N)nc(N)nc76)O[C@@H]5CO[P@@](=O)(S)O[C@H]4[C@H]3O)c2n1 [Compound 23, (2R,3R,3aS,5R,7aR,9R,10R,10aS,12R,14aR)-2,9-bis(2,6-diamino-9H-purin-9-yl)-3,10-dihydroxy-5,12-dimercaptooctahydro-2H,7H-difuro[3,2-d:3′,2′-j][1,3,7,9]tetraoxa[2,8]diphosphacyclododecine 5,12-dioxide] | 152 | –
CC(C)C(=O)Nc1nc2c(ncn2[C@@H]2O[C@@H]3CO[P@@](=O)(S)O[C@H]4[C@@H](F)[C@H](n5cnc6c(=O)[nH]c(NC(=O)C(C)C)nc65)O[C@@H]4CO[P@@](=O)(S)O[C@H]3[C@H]2F)c(=O)[nH]1 [Compound 32, N,N′-(((2R,3R,3aR,5R,7aR,9R,10R,10aR,12R,14aR)-3,10-difluoro-5,12-dimercapto-5,12-dioxidooctahydro-2H, 7H-difuro[3,2-d:3′,2′-j][1,3,7,9]tetraoxa[2,8]diphosphacyclododecine-2,9-diyl)bis(6-oxo-6,9-dihydro-1H-purine-9,2-diyl))bis(2-methylpropanamide)] | 803 | –
Nc1ccn([C@@H]2O[C@@H]3CO[P@@](=O)(S)O[C@H]4[C@@H](F)[C@H](n5cnc6c(N)ncnc65)O[C@@H]4CO[P@@](=O)(S)O[C@H]3[C@H]2F)c(=O)n1 [Compound 37, 4-amino-1-((2R,3R,3aR,5R,7aR,9R,10R,10aR,12R,14aR)-9-(6-amino-9H-purin-9-yl) 3,10-difluoro-5,12-dimercapto 5,12-dioxidooctahydro-2H,7H-difuro[3,2-d:3′,2′-j][1,3,7,9]tetraoxa[2,8]diphosphacyclododecin-2-yl)pyrimidin-2(1H)-one] | 4120 | –
CC(C)C(=O)Nc1nc2c(ncn2[C@@H]2O[C@@H]3CO[P@@](=O)(S)O[C@@H]4[C@H](O)[C@@H](CO[P@@](=O)(S)O[C@H]3[C@H]2O)O[C@H]4n2cnc3c(NC(=O)c4ccccc4)ncnc32)c(=O)[nH]1 [Compound 42, dithio-[RP, RP]-cyclic-[ibG(3′,5′)p-BzA(2′,5′)p]] | 966 | –
Nc1nc2c(ncn2[C@@H]2O[C@@H]3CO[P@](=O)(S)O[C@@H]4[C@H](O)[C@@H](CO[P@](=O)(S)O[C@H]3[C@H]2O)O[C@H]4n2cnc3c(N)ncnc32)c(=O)[nH]1 [Compound 43] | 4040 | –
Nc1ncnc2c1ncn2[C@H]1O[C@H]2CO[P@](=O)(S)O[C@@H]3[C@H](O)[C@@H](n4cnc5c(N)ncnc54)O[C@H]3CO[P@](=O)(S)O[C@@H]2[C@@H]1O [Compound 48, (2S,3S,3aR,5S,7aS,9S,10S,10aR,12S,14aS)-2,9-bis(6-amino-9H-purin-9-yl)-3,10-dihydroxy-5,12-dimercaptooctahydro-2H,7H-difuro[3,2-d:3′,2′-j][1,3,7,9]tetraoxa[2,8]diphosphacyclododecine 5,12-dioxide] | 662 | –
C#CCOc1nc(N)nc2c1ncn2[C@@H]1O[C@@H]2COP(=O)(O)O[C@H]3[C@@H](O)[C@H](n4cnc5c(=O)[nH]c(N)nc54)O[C@@H]3COP(=O)(O)O[C@H]2[C@H]1O [compound 25, 2-amino-9-((2R,3R,3aS,7aR,9R,10R,10aS,14aR)-9-(2-amino-6-(prop-2-yn-1-yloxy)-9H-purin-9-yl)-3,5,10,12-tetrahydroxy-5,12-dioxidooctahydro-2H,7H-difuro[3,2-d:3′,2′-j][1,3,7,9]tetraoxa[2,8]diphosphacyclododecin-2-yl)-1,9-dihydro-6H-purin-6-one] | 5010 | –

More lines, main results first:

IC50 [1] [µM] | Structure (SMILES) | IC50 [µM]
150 | Nc1nc(N)c2ncn([C@@H]3O[C@@H]4CO[P@@](=O)(S)O[C@H]5[C@@H](O)[C@H](n6cnc7c(N)nc(N)nc76)O[C@@H]5CO[P@](=O)(S)O[C@H]4[C@H]3O)c2n1 [Compound 23a, (2R,3R,3aS,5R,7aR,9R,10R,10aS,12S,14aR)-2,9-bis(2,6-diamino-9H-purin-9-yl)-3,10-dihydroxy-5,12-dimercaptooctahydro-2H,7H-difuro[3,2-d:3′,2′-j][1,3,7,9]tetraoxa[2,8]diphosphacyclododecine 5,12-dioxide] | –
3200 | Nc1ccn([C@@H]2O[C@@H]3CO[P@](=O)(S)O[C@H]4[C@@H](F)[C@H](n5cnc6c(N)ncnc65)O[C@@H]4CO[P@@](=O)(S)O[C@H]3[C@H]2F)c(=O)n1 [Compound 37a, 4-amino-1-((2R,3R,3aR,5R,7aR,9R,10R, 10aR,12S,14aR)-9-(6-amino-9H-purin-9-yl)-3,10-difluoro-5,12-dimercapto-5,12-dioxidooctahydro-2H,7H-difuro[3,2-d: 3′,2′-j][1,3,7,9]tetraoxa[2,8]diphosphacyclododecin-2-yl)pyrimidin-2(1H)-one] | –
308 | Nc1ncnc2c1ncn2[C@H]1O[C@H]2CO[P@@](=O)(S)O[C@@H]3[C@H](O)[C@@H](n4cnc5c(N)ncnc54)O[C@H]3CO[P@](=O)(S)O[C@@H]2[C@@H]1O [Compound 48a, Triethylammonium (2S,3S,3aR,5R,7aS,9S,10S,10aR,12S,14aS)-2,9-bis(6-amino-9H-purin-9-yl)-3,10-dihydroxyoctahydro-2H, 7H-difuro[3,2-d: 3′,2′-j][1,3,7,9]tetraoxa[2,8]diphosphacyclododecine-5,12-bis(thiolate) 5,12-dioxide] | –
342 | Nc1ncnc2c1ncn2[C@H]1O[C@H]2CO[P@@](=O)(S)O[C@@H]3[C@H](O)[C@@H](n4cnc5c(N)ncnc54)O[C@H]3CO[P@@](=O)(S)O[C@@H]2[C@@H]1O [Compound 48b, triethylammonium (2S,3S,3R,5R,7aS,9S,10S,10aR,12R,14aS)-2,9-bis(6-amino-9H-purin-9-yl)-3,10-dihydroxyoctahydro-2H,7H-difuro[3,2-d: 3′,2′-j][1,3,7,9]tetraoxa[2,8]diphosphacyclododecine-5,12-bis(thiolate) 5,12-dioxide] | –
